Experimental data taken from the NIST ThermoML archive (doi:10.1016/j.fluid.2016.09.021).
± gives the expanded uncertainty stated by the source.

Details: Liquid, Vibrating tube method

c1ccccc1 [benzene]
mass density [kg/m3]
Details | 293 K | 313 K | 333 K | 353 K | 373 K | 393 K | 413 K | 433 K | 448 K | 468 K
2100 kPa | 877.4 ± 2 | 857 ± 2.1 | 835.1 ± 2 | 813.1 ± 2.1 | 790.7 ± 2.1 | 767.6 ± 2.2 | 743 ± 2.3 | 716.7 ± 2.4 | 696 ± 2.5 | 666.9 ± 2.5
3100 kPa | 878.1 ± 2 | 857.8 ± 2 | 836 ± 2 | 814.2 ± 2.1 | 792.1 ± 2.1 | 769.4 ± 2.1 | 745.1 ± 2.2 | 719.4 ± 2.3 | 699.2 ± 2.4 | 670.7 ± 2.5
4100 kPa | 878.8 ± 2 | 858.7 ± 2 | 837 ± 2.1 | 815.4 ± 2.1 | 793.4 ± 2.1 | 770.9 ± 2.1 | 747 ± 2.2 | 721.8 ± 2.2 | 702.1 ± 2.3 | 674.3 ± 2.5
5000 kPa | 879.6 ± 2 | 859.6 ± 2 | 838 ± 2.1 | 816.5 ± 2.1 | 794.7 ± 2.1 | 772.5 ± 2.1 | 748.8 ± 2.1 | 724 ± 2.2 | 704.8 ± 2.3 | 677.8 ± 2.5
10100 kPa | 883.4 ± 2 | 863.9 ± 2 | 842.7 ± 2 | 822.3 ± 2.1 | 801.4 ± 2.1 | 780 ± 2.1 | 758 ± 2.1 | 735.4 ± 2.2 | 717.8 ± 2.2 | 693.2 ± 2.3
20000 kPa | 890.4 ± 2 | 871.5 ± 2 | 851.8 ± 2 | 832.3 ± 2.1 | 812.9 ± 2.1 | 793 ± 2.1 | 773.2 ± 2.1 | 753 ± 2.1 | 738 ± 2.2 | 717 ± 2.2
30000 kPa | 896.9 ± 2 | 878.7 ± 2 | 859.4 ± 2 | 841.2 ± 2 | 823.1 ± 2.1 | 804.5 ± 2.1 | 786.2 ± 2.1 | 767.8 ± 2.1 | 754.2 ± 2.1 | 735.1 ± 2.2
40000 kPa | 902.9 ± 2 | 885.2 ± 2 | 867 ± 2 | 849.5 ± 2.1 | 832.3 ± 2.1 | 814.6 ± 2.1 | 797.5 ± 2.1 | 780.3 ± 2.1 | 767.8 ± 2.1 | 750.3 ± 2.1
50000 kPa | 908.6 ± 2 | 891.6 ± 2 | 874.2 ± 2 | 857 ± 2.1 | 840.7 ± 2.1 | 824 ± 2.1 | 807.8 ± 2.1 | 791.6 ± 2.1 | 779.8 ± 2.1 | 763.6 ± 2.1
60000 kPa | 914 ± 2 | 897.5 ± 2 | 880.8 ± 2 | 864.3 ± 2.1 | 848.2 ± 2.1 | 832.6 ± 2.1 | 817.2 ± 2.1 | 801.7 ± 2.1 | 790.6 ± 2.1 | 775.5 ± 2.1
70000 kPa | 919.6 ± 2 | 902.9 ± 2 | 886.7 ± 2 | 871.2 ± 2.1 | 855.7 ± 2.1 | 841 ± 2.1 | 825.8 ± 2.1 | 811 ± 2.1 | 800.3 ± 2.1 | 786.1 ± 2.1

CCCCCCCCCCCC [dodecane]
mass density [kg/m3]
Details | 293 K | 313 K | 333 K | 353 K | 373 K | 393 K | 413 K | 433 K | 448 K | 468 K
2100 kPa | 752.3 ± 2 | 737.7 ± 2 | 722.8 ± 2 | 708.1 ± 2.1 | 693.2 ± 2.1 | 678.1 ± 2.1 | 662.8 ± 2.1 | 646.8 ± 2.1 | 634.6 ± 2.2 | 617.8 ± 2.2
3100 kPa | 752.9 ± 2 | 738.5 ± 2 | 723.6 ± 2 | 709 ± 2.1 | 694.3 ± 2.1 | 679.2 ± 2.1 | 664.2 ± 2.1 | 648.5 ± 2.1 | 636.7 ± 2.1 | 619.9 ± 2.2
4100 kPa | 753.6 ± 2 | 739.2 ± 2 | 724.5 ± 2.1 | 710 ± 2.1 | 695.3 ± 2.1 | 680.4 ± 2.1 | 665.6 ± 2.1 | 650 ± 2.1 | 638.2 ± 2.1 | 622 ± 2.2
5000 kPa | 754.2 ± 2 | 739.9 ± 2 | 725.3 ± 2.1 | 710.9 ± 2.1 | 696.3 ± 2.1 | 681.6 ± 2.1 | 666.9 ± 2.1 | 651.6 ± 2.1 | 640 ± 2.2 | 624.1 ± 2.2
10100 kPa | 757.5 ± 2 | 743.4 ± 2 | 729.4 ± 2 | 715.6 ± 2.1 | 701.5 ± 2.1 | 687.5 ± 2.1 | 673.7 ± 2.1 | 659.5 ± 2.1 | 648.5 ± 2.1 | 634.1 ± 2.1
20000 kPa | 763.5 ± 2.1 | 750.1 ± 2.1 | 736.6 ± 2.1 | 723.9 ± 2.1 | 710.8 ± 2.1 | 697.8 ± 2.1 | 685.1 ± 2.1 | 672 ± 2.1 | 662.4 ± 2.1 | 649.5 ± 2.1
30000 kPa | 769 ± 2.1 | 756.3 ± 2.1 | 743.4 ± 2.1 | 731.3 ± 2.1 | 718.7 ± 2.1 | 706.6 ± 2.1 | 694.9 ± 2.1 | 682.8 ± 2.1 | 674 ± 2.1 | 661.8 ± 2.1
40000 kPa | 774.3 ± 2.1 | 761.8 ± 2.1 | 749.6 ± 2.1 | 737.7 ± 2.1 | 726 ± 2.1 | 714.7 ± 2.1 | 703.6 ± 2.1 | 692.1 ± 2.1 | 684 ± 2.1 | 672.8 ± 2.2
50000 kPa | 779 ± 2.1 | 767.1 ± 2.1 | 755.3 ± 2.1 | 744.1 ± 2.1 | 733.1 ± 2.1 | 722.2 ± 2.1 | 711.4 ± 2.2 | 700.6 ± 2.2 | 692.9 ± 2.2 | 682.6 ± 2.2
60000 kPa | 783.8 ± 2.1 | 772.1 ± 2.1 | 760.8 ± 2.1 | 750.1 ± 2.1 | 739.4 ± 2.2 | 728.7 ± 2.2 | 718.7 ± 2.2 | 708.3 ± 2.2 | 701 ± 2.2 | 691 ± 2.2
69900 kPa | 788 ± 2.1 | 777 ± 2.2 | 766 ± 2.2 | 755.6 ± 2.2 | 745.2 ± 2.2 | 735.1 ± 2.2 | 725.4 ± 2.2 | 715.6 ± 2.2 | 708.3 ± 2.2 | 698.9 ± 2.3
79900 kPa | 792.5 ± 2.2 | 781.6 ± 2.2 | 770.9 ± 2.2 | 760.7 ± 2.2 | 750.7 ± 2.2 | 741.1 ± 2.2 | 731.7 ± 2.2 | 722.1 ± 2.3 | 715.3 ± 2.3 | 706.3 ± 2.3
89900 kPa | 796.7 ± 2.2 | 786.1 ± 2.2 | 775.7 ± 2.2 | 765.7 ± 2.2 | 756 ± 2.2 | 746.8 ± 2.3 | 737.3 ± 2.3 | 728.3 ± 2.3 | 721.9 ± 2.3 | 712.9 ± 2.3
99900 kPa | 800.8 ± 2.2 | 790.4 ± 2.2 | 780.1 ± 2.2 | 770.5 ± 2.3 | 761 ± 2.3 | 752.2 ± 2.3 | 743.2 ± 2.3 | 734.3 ± 2.3 | 727.9 ± 2.3 | 719.2 ± 2.4
109900 kPa | 804.8 ± 2.2 | 794.6 ± 2.2 | 784.6 ± 2.3 | 775.1 ± 2.3 | 765.9 ± 2.3 | 757.2 ± 2.3 | 748.5 ± 2.3 | 739.8 ± 2.4 | 733.5 ± 2.4 | 725.1 ± 2.4
119900 kPa | 808.7 ± 2.3 | 798.7 ± 2.3 | 788.8 ± 2.3 | 779.6 ± 2.3 | 770.6 ± 2.3 | 762 ± 2.4 | 753.7 ± 2.4 | 745.1 ± 2.4 | 739 ± 2.4 | 731 ± 2.4
129900 kPa | 812.4 ± 2.3 | 802.7 ± 2.3 | 793.2 ± 2.3 | 784 ± 2.3 | 775.1 ± 2.4 | 766.8 ± 2.4 | 758.5 ± 2.4 | 750.3 ± 2.4 | 744.2 ± 2.5 | 736.3 ± 2.5
134900 kPa | 814.4 ± 2.3 | 804.6 ± 2.3 | 795.1 ± 2.3 | 786 ± 2.4 | 777.4 ± 2.4 | 769 ± 2.4 | 760.9 ± 2.4 | 752.7 ± 2.5 | 746.7 ± 2.5 | 738.9 ± 2.5
137400 kPa | 815.2 ± 2.3 | 805.4 ± 2.3 | 796 ± 2.3 | 787 ± 2.4 | 778.5 ± 2.4 | 770.2 ± 2.4 | 762 ± 2.4 | 753.9 ± 2.5 | 747.9 ± 2.5 | 740.2 ± 2.5
